In patent US6942874B2, “Nucleotide compounds that block the bitter taste of oral compositions” (Linguagen Corp., priority 2001, dated 2005):

System: transducin
Experiment: [35S] GTPγS binding assay: transducin activation by bitter-stimulated taste membranes
Type: biochemical, bovine
Excerpt: Since G proteins have an intrinsic GTPase activity, which terminates the activation cycle, a radioactive nonhydrolyzable analogue of GTR such as [^35S] GTPγS or [^3H] GppNHp must be used. To test for the inhibitory activity of nucleotide compounds, several modifications of the standard [^35S] GTPγS binding assay were made to efficiently measure activation by bitter responsive receptors that couple to gustducin or transducin ([…] et al., in preparation). To maximize the bitter dependent change in radiolabel uptake GDP:GTPγS ratios, buffer composition, and specific activity of the [^35S] GTPγS were adjusted. […] Radionucleotide bound to transducin can be measured by filter binding followed by washing to remove unbound label (Asano et al., 1984 Biochemistry 23:5460-5467). The final concentrations in the [^35S] GTPγS binding assay mix are 10 mM HEPES pH 7.5, 5 mM MgCl2, 50 mM NaCl, 1 mM dithiolthreitol, 10 μM GDP, 1 μM [^35S] GTPγS (0.1 μCi/sample), 0.5 μg/0.05 ml transducin heterotrimer. A 2× stock of the above mixture is added to the bitter compound. Reactions are started by addition of 5 μg/0.05 ml bovine circumvallate membranes and the sample volume is adjusted to […] with water. Samples are incubated at room temperature (25±2° C. for 2 hours). Long incubation times are necessary due to the low density of receptors in the membranes. Similar results are obtained with high dilutions of rhodopsin. Samples are then filtered through BA-85 nitrocellulose filters and washed 3 times with 3 ml of 50 mM Tris-HCl pH 7.5, 4 mM MgCl2, and 0.1 M NaCl. Filters are dried, placed in scintillation fluid and the radioactivity is determined by scintillation counting. Experiments are performed in triplicate with several concentrations of the tastant of interest. Controls include: (i) a rhodopsin positive control, (ii) a no tastant negative control and (iii) a no membrane control +/-tastants.

## CC[N+](CC)(CC(=O)Nc1c(C)cccc1C)Cc1ccccc1 [denatonium]
10 mM, with circumvallate membranes, vs membranes alone, Student's t-test, FIG. 1A
  [35S] GTPγS radiolabel binding to transducin: increased radiolabel binding
Denatonium 10 mM, with bovine circumvallate membranes, FIG. 1A
  activation of transducin relative to maximal rhodopsin stimulated [35S] GTPγS binding: ~40%
In the presence of circumvallate membranes, FIG. 1B
  concentration dependence of transducin activation: concentration dependent activation of transducin
